How the values were obtained:
Mus musculus [1] = test: Anticonvulsant activity in Swiss albino mouse assessed as decrease in time of subcutaneous PTZ-induced clonic hind leg extension administered as ip at equimolar dose of diazepam 30 mins before subcutaneous PTZ challenge measured after 0.5 hrs (reference value: 76.80 +/- 2.41 sec); type: functional, Hindlimb
Mus musculus [2] = test: Anticonvulsant activity in Swiss albino mouse assessed as decrease in time of maximum electroshock-induced tonic hind leg extension administered as ip at equimolar dose of phenytoin 30 mins before maximum electroshock seizure stimulation measured after 0.5 hrs (reference value: 15.40 +/- 0.50 sec); type: functional, Hindlimb
Mus musculus [3] = test: Anticonvulsant activity in ip dosed Swiss albino mouse assessed as decrease in time of subcutaneous PTZ-induced clonic hind leg extension administered 30 mins before subcutaneous PTZ challenge measured after 0.5 hrs (reference value: 76.80 +/- 2.41 sec); type: functional, Hindlimb
Mus musculus [4] = species: Mus musculus; test: Neurotoxicity in Swiss albino mouse by rotarod test; type: toxicity, organism-based; conditions: in vivo
Mus musculus [5] = test: Hepatotoxicity in Swiss albino mouse assessed as change in liver total protein level assessed per 100 ml at 25 mg/kg/day for 15 days; type: toxicity, organism-based; conditions: in vivo, 360 h
Mus musculus [6] = test: Hepatotoxicity in Swiss albino mouse assessed as change in liver SGPT level at 25 mg/kg/day for 15 days; type: toxicity, organism-based; conditions: in vivo, 360 h
Mus musculus [7] = test: Hepatotoxicity in Swiss albino mouse assessed as change in liver SGOT level at 25 mg/kg/day for 15 days; type: toxicity, organism-based; conditions: in vivo, 360 h
Mus musculus [8] = test: Hepatotoxicity in Swiss albino mouse assessed as change in liver alkaline phosphatase level at 25 mg/kg/day for 15 days; type: toxicity, organism-based; conditions: in vivo, 360 h

Question: With `CCc1nc2ccc(Br)cc2c(=O)n1-c1nc2c(C)cccc2s1` as the compound, how does the Time (Mus musculus [1]) read?
Answer: 95.23 s

Question: What about the Time (Mus musculus [2]) of the same compound?
Answer: 10.5 s

Question: For `CN1C(=O)CN=C(c2ccccc2)c2cc(Cl)ccc21` [DIAZEPAM], which Time (Mus musculus [3]) is on record?
Answer: 111.6 s

Question: And the Activity (Mus musculus [4])?
Answer: Non-toxic

Question: Which Time (Mus musculus [1]) does the source give for `CCc1nc2ccc(Br)cc2c(=O)n1-c1nc2c(OC)cccc2s1` here?
Answer: 98.12 s

Question: What about the Activity (Mus musculus [5]) of the same compound?
Answer: 1.82 g

Question: And the Activity (Mus musculus [6])?
Answer: Non-toxic

Question: What about the Time (Mus musculus [2]) of the same compound?
Answer: 10.2 s

Question: And the Activity (Mus musculus [7])?
Answer: Non-toxic

Question: And the Activity (Mus musculus [4])?
Answer: Non-toxic

Question: What about the Activity (Mus musculus [8]) of the same compound?
Answer: Non-toxic

Question: For `CCc1nc2ccc(Br)cc2c(=O)n1-c1nc2ccc(OC)cc2s1`, which Time (Mus musculus [1]) is on record?
Answer: 99.45 s

Question: What about the Activity (Mus musculus [5]) of the same compound?
Answer: 1.78 g

Question: What about the Activity (Mus musculus [6]) of the same compound?
Answer: Non-toxic

Question: What about the Time (Mus musculus [2]) of the same compound?
Answer: 9.7 s

Question: What about the Activity (Mus musculus [7]) of the same compound?
Answer: Non-toxic

Question: What about the Activity (Mus musculus [4]) of the same compound?
Answer: Non-toxic

Question: And the Activity (Mus musculus [8])?
Answer: Non-toxic

Question: `CCc1nc2ccc(Br)cc2c(=O)n1-c1nc2cc(Cl)ccc2s1` was tested. Which Time (Mus musculus [1]) did it give?
Answer: 93 s

Question: What about the Activity (Mus musculus [5]) of the same compound?
Answer: 1.75 g

Question: And the Activity (Mus musculus [6])?
Answer: Non-toxic

Question: What about the Time (Mus musculus [2]) of the same compound?
Answer: 8.6 s

Question: And the Activity (Mus musculus [7])?
Answer: Non-toxic

Question: What about the Activity (Mus musculus [4]) of the same compound?
Answer: Non-toxic

Question: What about the Activity (Mus musculus [8]) of the same compound?
Answer: Non-toxic

Question: Which Time (Mus musculus [1]) does the source give for `CCc1nc2ccc(Br)cc2c(=O)n1-c1nc2cc(C)ccc2s1` here?
Answer: 93.2 s

Question: What about the Time (Mus musculus [2]) of the same compound?
Answer: 11.2 s

Question: Which results are given for `CCOc1cccc2sc(-n3c(CC)nc4ccc(Br)cc4c3=O)nc12`?
Answer: Time (Mus musculus [1]): 98 s; Activity (Mus musculus [5]): 1.82 g; Activity (Mus musculus [6]): Non-toxic; Time (Mus musculus [2]): 10.1 s; Activity (Mus musculus [7]): Non-toxic; Activity (Mus musculus [4]): Non-toxic; Activity (Mus musculus [8]): Non-toxic

Question: Which results are given for `CCc1nc2ccc(Br)cc2c(=O)n1-c1nc2c(C)cc(C)cc2s1`?
Answer: Time (Mus musculus [1]): 91.6 s; Time (Mus musculus [2]): 11.8 s

Question: How did the Time (Mus musculus [1]) turn out when `CCc1nc2ccc(Br)cc2c(=O)n1-c1nc2ccc([N+](=O)[O-])cc2s1` was run?
Answer: 91 s

Question: What about the Time (Mus musculus [2]) of the same compound?
Answer: 12 s

Question: What does the source list for `CCc1nc2ccc(Br)cc2c(=O)n1-c1nc2cc(OC)ccc2s1`?
Answer: Time (Mus musculus [1]): 89.8 s; Time (Mus musculus [2]): 10.6 s

Question: With `CCc1nc2ccc(Br)cc2c(=O)n1-c1nc2ccccc2s1` as the compound, how does the Time (Mus musculus [1]) read?
Answer: 91.6 s

Question: What about the Activity (Mus musculus [5]) of the same compound?
Answer: 1.82 g

Question: And the Activity (Mus musculus [6])?
Answer: Non-toxic

Question: And the Time (Mus musculus [2])?
Answer: 7.4 s

Question: What about the Activity (Mus musculus [7]) of the same compound?
Answer: Non-toxic

Question: What about the Activity (Mus musculus [4]) of the same compound?
Answer: Non-toxic

Question: And the Activity (Mus musculus [8])?
Answer: Non-toxic

Source: ChEMBL document CHEMBL2034838, “Quinazolino-benzothiazoles: fused pharmacophores as anticonvulsant agents” (Eur J Med Chem, 2012)
